“Also recorded” adds a separate entry of the source.
Tests used:
Type in all cases: cell-based
[1] = tested on: "dummy" transfected control COS-7 cells; assay: Aequorin bioluminescence assay, "dummy" transfected control COS-7 cells (no leukotriene receptor); conditions: 200 nM agonist, COS-7 cells with "dummy" insert and aequorin
Excerpt: (§1) The photoprotein aequorin, originally isolated from luminescent jellyfish, has proven to be a highly sensitive and quantitative bioluminescence Ca^2+ indicator in cells.
(§2) The aequorin complex contains a 22,000 MW apoaequorin protein, oxygen and the luminophore, coelenterazine. When three Ca^2+ ions bind to this complex, coelenterazine is oxidized to coelenteramide, releasing carbon dioxide and light (emission maximum ˜466 nm). Aequorin has a broad detection range, allowing the measurement of Ca^2+ concentrations from ˜0.1 μM to >100 μM.
(§3) The HUMAN CysLT2 GPCR and apoaequorin cDNAs were transiently co-expressed in cells (the aequorin is targeted for expression in mitochondria). Once cells have been transfected with these expression vectors, they are incubated in a medium containing cell-permeant coelenterazine which reconstitutes the aequorin complex. After formation of the active aequorin complex, intracellular Ca^2+ release caused by activation of the HUMAN CysLT2 GPCR is measured by assaying cells for light production using a luminometer.
(§4) COS-7 cells were trypsinized and plated at 1.5×10^5 cells/well in 6 well tissue culture plates. The cells were grown overnight at 37° C. in DMEM supplemented with 10% FBS, 1% glutamine and 1% non essential amino acids. […]

HUMAN CysLT2 GPCR = target: T1, HUMAN CysLT2 GPCR (Homo sapiens, UniProt Q9NS75); assay: Aequorin bioluminescence assay of intracellular calcium release, COS-7 cells expressing HUMAN CysLT2 GPCR; conditions: 200 nM antagonist injected 10 seconds before 200 nM LTC4 or LTD4
T1 construct: expressed in transfected cells; host or cells: COS-7
T1 sequence (Q9NS75 1-346): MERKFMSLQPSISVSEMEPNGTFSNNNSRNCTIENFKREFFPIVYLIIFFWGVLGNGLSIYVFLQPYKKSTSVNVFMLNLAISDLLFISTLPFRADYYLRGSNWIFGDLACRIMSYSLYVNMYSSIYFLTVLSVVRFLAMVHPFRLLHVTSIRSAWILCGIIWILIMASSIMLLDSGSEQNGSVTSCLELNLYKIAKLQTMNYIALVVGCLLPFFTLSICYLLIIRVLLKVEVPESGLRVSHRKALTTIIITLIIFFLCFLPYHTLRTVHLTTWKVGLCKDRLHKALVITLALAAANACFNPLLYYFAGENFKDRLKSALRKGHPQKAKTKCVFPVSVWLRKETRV
Excerpt: as §1, §2, §3, §4

human CysLT1 receptor = target: T2, human CysLT1 receptor (Homo sapiens, UniProt Q9Y271); assay: Aequorin bioluminescence assay of intracellular calcium release, COS-7 cells expressing human CysLT1; conditions: 200 nM antagonist injected 10 seconds before 200 nM LTC4 or LTD4
T2 construct: expressed in transfected cells; host or cells: COS-7
T2 sequence (Q9Y271 1-337): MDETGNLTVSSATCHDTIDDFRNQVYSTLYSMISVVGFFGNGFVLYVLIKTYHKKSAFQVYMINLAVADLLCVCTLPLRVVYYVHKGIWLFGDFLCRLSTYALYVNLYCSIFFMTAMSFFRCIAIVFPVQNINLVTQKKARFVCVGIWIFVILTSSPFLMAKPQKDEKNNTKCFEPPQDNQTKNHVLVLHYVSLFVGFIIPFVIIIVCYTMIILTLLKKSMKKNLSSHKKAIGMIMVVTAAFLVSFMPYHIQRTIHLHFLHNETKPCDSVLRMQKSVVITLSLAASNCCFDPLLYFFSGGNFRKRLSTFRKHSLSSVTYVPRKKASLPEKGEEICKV

Row | SMILES | aequorin activation by agonist [1] | block of LTC4 or LTD4 induced receptor activation by antagonist (HUMAN CysLT2 GPCR) | block of LTC4 or LTD4 induced receptor activation by antagonist (human CysLT1 receptor)
1 | CCCCC/C=C\C\C=C/C=C/C=C/[C@@H](SC[C@H](NC(=O)CC[C@H](N)C(=O)O)C(=O)NCC(=O)O)[C@@H](O)CCCC(=O)O [LTC4] | not on the “dummy” transfected control cells | – | –
2 | CCCCC/C=C\C\C=C/C=C/C=C/[C@@H](SC[C@H](N)C(=O)NCC(=O)O)[C@@H](O)CCCC(=O)O [LTD4] | not on the “dummy” transfected control cells | – | –
3 | CN(C)C(=O)CCSC(SCCC(=O)O)c1cccc(/C=C/c2ccc3ccc(Cl)cc3n2)c1 (stereo not shown) [MK571] | – | neither antagonist significantly inhibited; also recorded: failed to block; also recorded: resistance to inhibition | effectively blocked
